Assay results reported in patent publication US6849409B2, “Cellular kinases involved in Cytomegalovirus infection and their inhibition” (Axxima Pharmaceuticals AG, priority 2000, dated 2005).
pIC50: −log10 of the molar value.

Experiments:
HCMV = HCMV inhibition (virus replication assay, plaque assay, GFP infection assay or indirect immunofluorescence analysis); type: cell-based; details: Human betaherpesvirus 5, read-out: IC50 HCMV
Experimental: (§1) To perform initial tests for compounds that inhibit RICK activity in a cellular assay, RICK was transiently overexpressed in HEK-293 cells, immunoprecipitated and incubated with different concentrations of test compounds before in-vitro kinase assays were performed (Example 10). According to the method for identifying compounds useful for inhibiting the cellular kinase RICK and therefore useful for treating and/or preventing Cytomegalovirus infection and/or diseases associated with Cytomegalovirus infection, a test compound is contacted with the cellular kinase RICK according to the RICK assay protocol disclosed in example 10. The test compound dissolved in DMSO is added to the RICK assay solution at concentrations between 100 nM and 50 μM. Thereafter, radioactively labeled ATP is added and kinase activity of RICK is determined by detecting the autophosphorylation of RICK via radioactivity measurement. The five compounds listed in the following Table 1 were identified using said method. […] The IC50 values of HCMV inhibition were obtained by the use of at least one assay protocol selected from a) virus replication assay, b) plaque assay, c) GFP (Green Fluorescent Protein) infection assay, and d) indirect immunofluorescence analysis as disclosed in example 12. Thus, the five compounds A to E mentioned below and/or pharmaceutically acceptable salts thereof can be used as inhibitors of the cellular protein kinase RICK and as pharmaceutically active compounds for the treatment and/or prophylaxis of HCMV infection. Furthermore, these compounds are suitable for the manufacture of a pharmaceutical composition for prophylaxis and/or treatment of Cytomegalovirus infection and/or diseases associated therewith.
(§2) To perform initial tests for compounds that inhibit RIP activity in a cellular assay, RIP was transiently overexpressed in HEK-293 cells, immunoprecipitated and incubated with different concentrations of test compounds before in-vitro kinase assays were performed (Example 11). In order to identify compounds suitable for inhibiting the cellular kinase RIP and, thus, suitable for treating and/or preventing Cytomegalovirus infection and/or diseases associated with Cytomegalovirus infection the inventive method according to claim 1 was used. A test compound was contacted with the cellular kinase RIP according to the RIP assay protocoll disclosed in example 11. The test compound dissolved in DMSO is added to the RIP assay solution at concentrations between 100 nM and 50 μM. Radioactively labeled ATP was used as co-substrate of RIP and auto-phosphorylation was detected via measurement of incorporation of radioactivity into the RIP protein. Thereafter, phosphorylation rates with and without test compounds were compared. […] The IC50 values of HCMV inhibition were obtained by the use of at least one assay protocol selected from a) virus replication assay, b) plaque assay, c) GFP infection assay, and d) indirect immunofluorescence analysis as disclosed in example 12.
Primary human foreskin fibroblasts (HFF) were cultivated in MEM containing 5% (v/v) fetal calf serum. Infection analysis was restricted to cell passage numbers below twenty. Human cytomegalovirus strain AD169 (ATCC) was grown in HFF cells and quantitated for infectivity by the plaque reduction assay. Aliquots were stored at −80° C.
HFF cells were cultivated in 12-well plates to 90-100% confluency and used for infection with dilutions of virus-positive cell culture supernatants. Virus inoculation was performed for 90 min at 37° C. under occasional shaking before virus was removed and the cell layers were rinsed with PBS. Overlays of MEM 5% (v/v) fetal calf serum and 0.3% (w/v) agarose were added to each well and all samples were incubated at 37° C. in a 5% CO2 atmosphere for approximately 12 days. Finally, overlays were removed and the formation of foci was visualized by staining with 1% crystal violet in 20% ethanol for 1 min. […]

RICK = molecular target: T1, RICK (Homo sapiens, UniProt O43353); assay: RICK-kinase assay (autophosphorylation of immunoprecipitated RICK-HA, radioactively labeled ATP); type: biochemical; details: in-vitro kinase assay, compound 100 nM to 50 μM, 30 min at 30° C.
T1 construct: made in house; host or cells: HEK 293 (transient transfection, pcDNA3), immunoprecipitated with anti-HA antibody
Experimental: as §1
To obtain active RICK kinase the human RICK-cDNA was fused with a DNA sequence coding for the HA-tag and cloned into the eucaryotic expression vector pcDNA3 (Invitrogene). This construct was transfected into human embryonic kidney cells (HEK 293) via the calcium-phosphate co-precipitation method. One day after transfection medium was replaced by fetal calf serurum-free medium and two days after transfection cells were washed with PBS and harvested and lysed in RIPA-buffer (150 mM NaCl, 1 mM EDTA, 1% Tritron X-100, 1% Na-desoxycholate, 0.1% SDS, 10 mM Tris-HCl pH 7.5). The RICK-HA fusion protein was immunoprecipitated from 250 μl cleared lysate (i.e. lysate of one well of a six-well plate) utilizing an anti-HA antibody from Roche Pharmaceuticals and Protein A sepharose. After addition of 500 μl of HNTG-buffer (50 mM HEPES pH 7.5, 150 mM NaCl, 1 mM EDTA, 10% glycerine, 0.1% Triton X-100) the sample was rotated for 3 hrs at 4° C. After washing the immunoprecipitate twice with 0.5 ml HNTG-buffer and twice with 0.5 ml assay-buffer (25 mM Tris-HCl pH 7.5, 3 mM MgCl2, 0.5 mM MnCl2, 0.5 mM DTT and 50 mM NaCl), the kinase reaction was performed directly on the beads in 40 μl assay buffer containing 2.5 μCi γ[^33P]-ATP and various concentrations (between 100 nM and 50 μM) of compounds of Table 1. After 30 min at 30° C., the reaction was stopped by addition of 40 μl 3×Laemmli-buffer (16% glycerol, 1.01M β-mercaptoethanol, 5% SDS, 200 mM Tris/HCl pH 6.8, 8% bromphenolblue). Phosphorylation products were analyzed by SDS-PAGE and auroradiography (x-ray film and phosphor imager).

RIP = molecular target: T2, RIP (Homo sapiens, UniProt Q13546); assay: RIP-kinase assay (autophosphorylation of immunoprecipitated RIP-HA, radioactively labeled ATP); type: biochemical; details: in-vitro kinase assay, compound 100 nM to 50 μM, 30 min at 30° C.
T2 construct: made in house; host or cells: HEK 293 (transient transfection, pcDNA3), immunoprecipitated with anti-HA antibody
T2 sequence (Q13546 1-671 A438V): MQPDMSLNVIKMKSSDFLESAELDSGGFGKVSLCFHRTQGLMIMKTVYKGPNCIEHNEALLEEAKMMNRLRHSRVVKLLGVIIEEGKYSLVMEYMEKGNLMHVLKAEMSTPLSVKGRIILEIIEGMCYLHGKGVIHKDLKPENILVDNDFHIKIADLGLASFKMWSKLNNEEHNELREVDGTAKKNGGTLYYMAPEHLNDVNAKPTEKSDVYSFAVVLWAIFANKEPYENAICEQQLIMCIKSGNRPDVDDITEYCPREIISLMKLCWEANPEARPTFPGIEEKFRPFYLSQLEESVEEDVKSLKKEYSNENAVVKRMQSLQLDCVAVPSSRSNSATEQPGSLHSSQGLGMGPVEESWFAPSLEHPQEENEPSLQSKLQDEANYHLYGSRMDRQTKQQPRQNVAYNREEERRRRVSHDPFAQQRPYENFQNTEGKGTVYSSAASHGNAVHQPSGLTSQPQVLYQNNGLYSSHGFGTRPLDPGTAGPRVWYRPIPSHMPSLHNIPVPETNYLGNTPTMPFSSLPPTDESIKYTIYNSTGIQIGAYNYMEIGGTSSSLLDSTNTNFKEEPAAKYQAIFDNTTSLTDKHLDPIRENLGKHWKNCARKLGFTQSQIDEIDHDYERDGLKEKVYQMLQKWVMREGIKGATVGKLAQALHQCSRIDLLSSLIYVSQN
Experimental: as §2
To obtain active RIP kinase the human RIP-cDNA was fused with a DNA sequence coding for the HA-tag and cloned into the eucaryotic expression vector pcDNA3 (Invitrogene). This construct was transfected into human embryonic kidney cells (HEK 293) via the calcium-phosphate DNA co-precipitation method. Two days after transfection cells were washed with PBS and harvested and lysed in lysis-buffer (150 mM NaCl, 1 mM EDTA, 1% Tritron X-100, 20 mM Tris-HCl pH 7.5 and freshly added: 30 mM NaF, 10 μg/ml Aprotinine, 10 μg/ml Leupeptine, 2 mM Na-pyrophosphate). […] Phosphorylation products were analyzed by SDS-PAGE and autoradiography (x-ray film and phosphor imager).

T1 sequence (O43353 whole entry): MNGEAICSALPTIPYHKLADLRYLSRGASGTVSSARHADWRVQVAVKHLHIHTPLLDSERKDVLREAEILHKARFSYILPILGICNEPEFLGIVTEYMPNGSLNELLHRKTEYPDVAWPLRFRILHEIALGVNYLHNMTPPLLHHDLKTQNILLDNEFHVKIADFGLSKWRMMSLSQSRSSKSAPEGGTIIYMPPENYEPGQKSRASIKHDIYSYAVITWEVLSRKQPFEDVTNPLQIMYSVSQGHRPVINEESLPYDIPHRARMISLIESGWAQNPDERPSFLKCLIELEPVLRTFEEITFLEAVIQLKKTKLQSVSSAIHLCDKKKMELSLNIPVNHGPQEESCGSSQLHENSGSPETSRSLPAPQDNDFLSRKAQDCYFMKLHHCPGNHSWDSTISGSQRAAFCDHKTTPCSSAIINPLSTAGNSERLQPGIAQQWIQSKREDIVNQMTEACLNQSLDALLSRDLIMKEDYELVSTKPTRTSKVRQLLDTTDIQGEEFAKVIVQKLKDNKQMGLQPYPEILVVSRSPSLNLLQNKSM

Row | SMILES | pIC50 (HCMV) | pIC50 (RICK) | pIC50 (RIP)
1 | Cn1c(=O)c(-c2c(Cl)cccc2Cl)cc2cnc(NCCCN3CCOCC3)nc21 [Compound A, 6-(2,6-Dichlorophenyl)-8-methyl-2-(3-morpholin-4-yl-propylamino)-8H-pyrido[2,3-d]pyrimidin-7-one] | 5.17 | 6.00 | –
2 | Cn1c(=O)c(-c2ccccc2)cc2cnc(Nc3ccncc3)nc21 [Compound B, 8-methyl-6-phenyl-2-(pyridin-4-yl-amino)-8H-pyrido[2,3-d]pyrimidin-7-one] | 5.85 | 6.30 | –
3 | CN1CCN(CCCNc2ncc3cc(-c4c(Cl)cccc4Cl)c(=O)n(C)c3n2)CC1 [Compound C, 6-(2,6-Dichlorophenyl)-8-methyl-2-[3-(4-methylpiperazin-1-yl)-propylamino]-8H-pyrido[2,3-d]pyrimidin-7-one] | 5.21 | 6.00 | –
4 | CCOc1cc2ncnc(Nc3cccc(Br)c3)c2cc1OCC [Compound D, (3-Bromophenyl)-(6,7-diethoxyquinazolin-4-yl)-amine] | 5.12 | 6.30 | –
5 | COc1cc2ncnc(Nc3cccc(Br)c3)c2cc1OC [Compound E, (3-Bromophenyl)-(6,7-dimethoxyquinazolin-4-yl)-amine] | 5.24 | 6.30 | –
6 | O=c1c(O)c(-c2ccc(O)c(O)c2)oc2cc(O)cc(O)c12 [Compound F, 2-(3,4-Dihydroxyphenyl)-3,5,7-trihydroxychromen-4-one] | 4.82 | – | 5.30
7 | O=C1Nc2ccc(Cl)cc2/C1=C/c1ccc[nH]1 [Compound G, 5-Cloro-3-(1H-pyrrol-2-ylmethylene)-1,3-dihydroindol-2-one] | 4.82 | – | 5.00
8 | O=C1NC(=O)c2ccccc2/C1=C/c1ccnc2ccccc12 [Compound H, 4-Quinolin-4-ylmethylene-4H-isoquinoline-1,3-dione] | 4.92 | – | 5.30
